Source: the NIST ThermoML archive (doi:10.1016/j.jct.2015.06.019)
± gives the expanded uncertainty stated by the source.

Experiments:
[1] = Molar enthalpy of transition or fusion; details: DSC
[2] = DSC

Molar enthalpy of transition or fusion ([1]; Crystal 1): 7.98 ± 0.335 kcal/mol
Molar enthalpy of transition or fusion ([1]; Crystal 2): 9.09 ± 0.382 kcal/mol
Triple point temperature ([2]; Crystal 1): 458.4 ± 1 K
Triple point temperature ([2]; Crystal 2): 454.7 ± 1 K
Compound: COC(=O)[C@H](c1ccccc1Cl)N1CCc2sccc2C1.O=S(=O)(O)O [(S)-(+)-Clopidogrel hydrogen sulfate]
